In patent US12161689B2, “Anti-infective formulations” (NEW MEXICO TECH UNIVERSITY RESEARCH PARK CORPORATION, priority 2018, dated 2024) one finds antibacterial activity data, which are given here for one molecule.

Molecules are shown by their SMILES. Where a SMILES comes first, the peptide text is derived from it. Bridges are numbered along the chain shown (N, C = ends). [ ]: non-standard residue; d: D form. The star is where a group is joined. Ileψ(thiazoline)Cys = CC[C@H](C)[C@H](N)C1=N[C@H](C(=O)*)CS1; dOrn = NCCC[C@@H](N)C(=O)O

The subject of this assay is multi-drug resistant Burkholderia cepacia (ATCC 10856). Description: Spot on lawn, MHA plate: killing / diameter of clearance. The format is cell-based. To be noted: 10 μL spot, 24 to 48 hours at 37° C.

Take `CC[C@H](C)[C@H](N)C1=N[C@H](C(=O)N[C@@H](CC(C)C)C(=O)N[C@H](CCC(=O)O)C(=O)N[C@H](C(=O)N[C@H]2CCCCNC(=O)[C@H](CC(N)=O)NC(=O)[C@@H](CC(=O)O)NC(=O)[C@H](Cc3cnc[nH]3)NC(=O)[C@@H](Cc3ccccc3)NC(=O)[C@H]([C@@H](C)CC)NC(=O)[C@@H](CCCN)NC2=O)[C@@H](C)CC)CS1` [Bacitracin] ({Ileψ(thiazoline)Cys}-L[dE]IK[dOrn]I[dF]H[dD]N; lactam 4-C): the antibacterial activity result is “−” (B. cepacia (ATCC 10856)) and “−” (Burkholderia cepacia ATCC 10856).
